# Experimental data reported in PMC4917279 (Journal of Medicinal Chemistry, 2016).
# Columns and labels:
# Experiment in all cases: KINOMEscan
# Type in all cases: binding
# Conditions in all cases: read-out: %Ctrl @ 1000 nM
# [1] = target: T1, ACVR2A (Homo sapiens, UniProt P27037)
# T1 construct: purchased DiscoveRx
# [2] = target: T2, BMX (Homo sapiens, UniProt P51813)
# T2 construct: purchased DiscoveRx KINOMEscan
# [3] = target: T3, CIT (Homo sapiens, UniProt O14578)
# T3 construct: purchased DiscoveRx KINOMEscan
# [4] = target: T4, CSNK1A1 (Homo sapiens, UniProt P48729)
# T4 construct: purchased DiscoveRx KINOMEscan
# [5] = target: T5, CSNK1D (Homo sapiens, UniProt P48730)
# T5 construct: purchased DiscoveRx KINOMEscan
# [6] = target: T6, DDR1 (Homo sapiens, UniProt Q08345)
# T6 construct: purchased DiscoveRx KINOMEscan
# [7] = target: T7, EGFR(L858R,T790M) (Homo sapiens, UniProt P00533, L858R/T790M)
# T7 construct: purchased DiscoveRx KINOMEscan
# [8] = target: T8, ERK8 (Homo sapiens, UniProt Q8TD08)
# T8 construct: purchased DiscoveRx KINOMEscan
# [9] = target: T9, HIPK4 (Homo sapiens, UniProt Q8NE63)
# T9 construct: purchased DiscoveRx KINOMEscan
# [10] = target: T10, INSR (Homo sapiens, UniProt P06213)
# T10 construct: purchased DiscoveRx KINOMEscan
# [11] = target: T11, KIT(D816V) (Homo sapiens, UniProt P10721, D816V)
# T11 construct: purchased DiscoveRx KINOMEscan
# [12] = target: T12, KIT(V559D) (Homo sapiens, UniProt P10721, V559D)
# T12 construct: purchased DiscoveRx KINOMEscan
# [13] = target: T13, LCK (Homo sapiens, UniProt P06239)
# T13 construct: purchased DiscoveRx KINOMEscan
# [14] = target: T14, LRRK2(G2019S) (Homo sapiens, UniProt Q5S007, G2019S)
# T14 construct: purchased DiscoveRx KINOMEscan
# [15] = target: T15, MAP3K1 (Homo sapiens, UniProt Q13233)
# T15 construct: purchased DiscoveRx KINOMEscan
# [16] = target: T16, MERTK (Homo sapiens, UniProt Q12866)
# T16 construct: purchased DiscoveRx KINOMEscan
# [17] = target: T17, MKNK2 (Homo sapiens, UniProt Q9HBH9)
# T17 construct: purchased DiscoveRx KINOMEscan
# [18] = target: T18, MLCK (Homo sapiens, UniProt Q32MK0)
# T18 construct: purchased DiscoveRx KINOMEscan
# [19] = target: T19, MYLK (Homo sapiens, UniProt Q15746)
# T19 construct: purchased DiscoveRx KINOMEscan
# [20] = target: T20, NDR1 (Homo sapiens, UniProt Q15208)
# T20 construct: purchased DiscoveRx KINOMEscan
# [21] = target: T21, NEK7 (Homo sapiens, UniProt Q8TDX7)
# T21 construct: purchased DiscoveRx KINOMEscan
# [22] = target: T22, PIK3C2B (Homo sapiens, UniProt O00750)
# T22 construct: purchased DiscoveRx KINOMEscan
# [23] = target: T23, PKAC-alpha (Homo sapiens, UniProt P17612)
# T23 construct: purchased DiscoveRx KINOMEscan
# [24] = target: T24, PLK1 (Homo sapiens, UniProt P53350)
# T24 construct: purchased DiscoveRx KINOMEscan
# [25] = target: T25, PLK3 (Homo sapiens, UniProt Q9H4B4)
# T25 construct: purchased DiscoveRx KINOMEscan
# [26] = target: T26, PRKD3 (Homo sapiens, UniProt O94806)
# T26 construct: purchased DiscoveRx KINOMEscan
# [27] = target: T27, PRKG2 (Homo sapiens, UniProt Q13237)
# T27 construct: purchased DiscoveRx KINOMEscan
# [28] = target: T28, RET(V804M) (Homo sapiens, UniProt P07949, V804M)
# T28 construct: purchased DiscoveRx KINOMEscan
# [29] = target: RPS6KA5(Kin.Dom.2-C-terminal) (Homo sapiens, UniProt O75582)
# [30] = target: T29, STK33 (Homo sapiens, UniProt Q9BYT3)
# T29 construct: purchased DiscoveRx KINOMEscan
# [31] = target: T30, STK35 (Homo sapiens, UniProt Q8TDR2)
# T30 construct: purchased DiscoveRx KINOMEscan
# [32] = target: T31, TBK1 (Homo sapiens, UniProt Q9UHD2)
# T31 construct: purchased DiscoveRx KINOMEscan
# [33] = target: T32, TGFBR2 (Homo sapiens, UniProt P37173)
# T32 construct: purchased DiscoveRx KINOMEscan
# [34] = target: T33, TIE1 (Homo sapiens, UniProt P35590)
# T33 construct: purchased DiscoveRx KINOMEscan
# [35] = target: T34, TNK2 (Homo sapiens, UniProt Q07912)
# T34 construct: purchased DiscoveRx KINOMEscan
# [36] = target: T35, TRKA (Homo sapiens, UniProt P04629)
# T35 construct: purchased DiscoveRx KINOMEscan
# [37] = target: T36, TXK (Homo sapiens, UniProt P42681)
# T36 construct: purchased DiscoveRx KINOMEscan
# T3 sequence (O14578 whole entry): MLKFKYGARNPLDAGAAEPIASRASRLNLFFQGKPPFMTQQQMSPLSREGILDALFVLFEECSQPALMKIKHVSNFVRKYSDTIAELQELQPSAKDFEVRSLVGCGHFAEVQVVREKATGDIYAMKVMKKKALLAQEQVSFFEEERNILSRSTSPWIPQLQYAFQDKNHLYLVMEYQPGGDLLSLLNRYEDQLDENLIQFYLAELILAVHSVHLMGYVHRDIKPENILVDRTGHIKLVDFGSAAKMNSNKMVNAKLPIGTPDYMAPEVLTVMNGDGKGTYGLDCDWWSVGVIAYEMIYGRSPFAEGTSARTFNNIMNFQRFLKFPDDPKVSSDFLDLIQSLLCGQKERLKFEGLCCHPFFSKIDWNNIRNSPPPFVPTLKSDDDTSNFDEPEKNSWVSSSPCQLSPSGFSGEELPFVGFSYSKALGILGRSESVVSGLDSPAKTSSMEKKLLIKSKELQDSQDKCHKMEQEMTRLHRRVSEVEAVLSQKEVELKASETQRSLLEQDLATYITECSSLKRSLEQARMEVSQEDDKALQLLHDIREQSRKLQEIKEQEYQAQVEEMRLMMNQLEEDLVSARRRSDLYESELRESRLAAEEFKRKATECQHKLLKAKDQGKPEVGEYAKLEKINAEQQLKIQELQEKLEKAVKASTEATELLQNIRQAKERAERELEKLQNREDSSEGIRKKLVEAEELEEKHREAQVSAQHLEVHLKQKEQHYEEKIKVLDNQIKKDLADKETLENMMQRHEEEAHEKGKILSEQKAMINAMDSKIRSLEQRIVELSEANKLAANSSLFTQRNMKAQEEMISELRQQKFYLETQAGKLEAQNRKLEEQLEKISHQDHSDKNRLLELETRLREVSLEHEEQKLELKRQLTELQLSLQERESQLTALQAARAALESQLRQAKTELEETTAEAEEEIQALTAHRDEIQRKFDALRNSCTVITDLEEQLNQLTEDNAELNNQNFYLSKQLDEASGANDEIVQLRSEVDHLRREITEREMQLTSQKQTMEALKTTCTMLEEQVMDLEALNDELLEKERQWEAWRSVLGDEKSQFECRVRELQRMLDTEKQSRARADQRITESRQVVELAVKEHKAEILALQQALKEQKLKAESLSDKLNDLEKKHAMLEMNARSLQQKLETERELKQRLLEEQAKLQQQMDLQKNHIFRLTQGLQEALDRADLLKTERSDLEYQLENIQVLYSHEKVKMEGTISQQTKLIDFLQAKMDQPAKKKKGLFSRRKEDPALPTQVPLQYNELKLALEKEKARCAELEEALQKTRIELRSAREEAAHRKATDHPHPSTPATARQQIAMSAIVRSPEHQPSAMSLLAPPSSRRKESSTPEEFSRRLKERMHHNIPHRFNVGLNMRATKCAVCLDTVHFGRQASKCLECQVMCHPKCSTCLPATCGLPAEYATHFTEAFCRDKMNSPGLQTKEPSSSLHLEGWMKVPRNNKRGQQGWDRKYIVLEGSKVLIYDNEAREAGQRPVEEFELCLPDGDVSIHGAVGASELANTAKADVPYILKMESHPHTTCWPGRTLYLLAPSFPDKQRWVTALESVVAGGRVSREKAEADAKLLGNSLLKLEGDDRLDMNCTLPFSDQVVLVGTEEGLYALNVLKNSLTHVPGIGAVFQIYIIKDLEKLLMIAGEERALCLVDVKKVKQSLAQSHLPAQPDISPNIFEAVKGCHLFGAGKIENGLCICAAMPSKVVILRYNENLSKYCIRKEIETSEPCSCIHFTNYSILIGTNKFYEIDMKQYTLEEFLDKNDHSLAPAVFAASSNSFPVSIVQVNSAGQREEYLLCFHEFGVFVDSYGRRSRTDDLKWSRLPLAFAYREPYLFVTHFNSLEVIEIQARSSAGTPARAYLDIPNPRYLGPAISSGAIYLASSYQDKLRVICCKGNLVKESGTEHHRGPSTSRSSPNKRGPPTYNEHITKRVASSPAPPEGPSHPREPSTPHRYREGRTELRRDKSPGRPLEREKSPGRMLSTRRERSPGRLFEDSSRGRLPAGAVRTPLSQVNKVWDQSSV
# T22 sequence (O00750 whole entry): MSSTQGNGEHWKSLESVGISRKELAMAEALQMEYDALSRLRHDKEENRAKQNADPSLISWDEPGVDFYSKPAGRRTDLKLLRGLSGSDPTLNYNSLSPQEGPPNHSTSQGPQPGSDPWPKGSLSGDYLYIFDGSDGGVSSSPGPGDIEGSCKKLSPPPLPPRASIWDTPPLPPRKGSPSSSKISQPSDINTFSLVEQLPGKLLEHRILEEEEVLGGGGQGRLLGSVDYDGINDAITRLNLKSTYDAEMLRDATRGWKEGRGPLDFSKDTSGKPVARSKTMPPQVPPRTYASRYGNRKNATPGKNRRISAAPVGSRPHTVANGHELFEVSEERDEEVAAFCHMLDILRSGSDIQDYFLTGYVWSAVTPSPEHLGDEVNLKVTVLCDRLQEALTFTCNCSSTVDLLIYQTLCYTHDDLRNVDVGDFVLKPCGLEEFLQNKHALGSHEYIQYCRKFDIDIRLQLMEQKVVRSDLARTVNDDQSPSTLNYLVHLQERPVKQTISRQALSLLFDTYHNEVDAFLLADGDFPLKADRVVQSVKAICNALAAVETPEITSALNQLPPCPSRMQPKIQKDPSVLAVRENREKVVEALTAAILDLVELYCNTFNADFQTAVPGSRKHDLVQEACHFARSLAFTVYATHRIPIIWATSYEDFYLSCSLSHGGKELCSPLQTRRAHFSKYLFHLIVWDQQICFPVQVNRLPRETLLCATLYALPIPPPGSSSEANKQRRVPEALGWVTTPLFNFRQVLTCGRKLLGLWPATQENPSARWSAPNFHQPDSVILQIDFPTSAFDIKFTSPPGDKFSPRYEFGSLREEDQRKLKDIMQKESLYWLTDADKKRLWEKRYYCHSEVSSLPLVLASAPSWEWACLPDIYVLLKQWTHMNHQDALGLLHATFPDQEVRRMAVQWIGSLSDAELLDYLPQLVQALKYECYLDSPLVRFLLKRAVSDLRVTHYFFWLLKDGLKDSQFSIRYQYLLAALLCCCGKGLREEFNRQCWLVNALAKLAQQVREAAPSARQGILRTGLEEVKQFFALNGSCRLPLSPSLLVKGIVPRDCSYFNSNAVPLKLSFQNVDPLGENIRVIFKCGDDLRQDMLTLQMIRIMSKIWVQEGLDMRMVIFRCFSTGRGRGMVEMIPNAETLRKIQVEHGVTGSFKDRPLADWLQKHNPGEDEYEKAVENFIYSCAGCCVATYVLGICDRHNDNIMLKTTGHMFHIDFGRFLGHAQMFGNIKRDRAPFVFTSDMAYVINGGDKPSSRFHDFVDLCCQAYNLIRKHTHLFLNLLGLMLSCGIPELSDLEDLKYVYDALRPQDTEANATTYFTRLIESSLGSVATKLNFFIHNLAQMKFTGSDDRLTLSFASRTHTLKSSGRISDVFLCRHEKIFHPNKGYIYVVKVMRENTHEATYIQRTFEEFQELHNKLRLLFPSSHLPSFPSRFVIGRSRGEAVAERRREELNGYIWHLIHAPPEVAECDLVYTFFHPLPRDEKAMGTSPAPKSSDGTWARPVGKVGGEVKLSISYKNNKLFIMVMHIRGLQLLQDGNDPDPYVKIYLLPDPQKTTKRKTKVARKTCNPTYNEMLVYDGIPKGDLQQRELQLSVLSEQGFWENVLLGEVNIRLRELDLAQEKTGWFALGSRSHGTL
# T8 sequence (Q8TD08 whole entry): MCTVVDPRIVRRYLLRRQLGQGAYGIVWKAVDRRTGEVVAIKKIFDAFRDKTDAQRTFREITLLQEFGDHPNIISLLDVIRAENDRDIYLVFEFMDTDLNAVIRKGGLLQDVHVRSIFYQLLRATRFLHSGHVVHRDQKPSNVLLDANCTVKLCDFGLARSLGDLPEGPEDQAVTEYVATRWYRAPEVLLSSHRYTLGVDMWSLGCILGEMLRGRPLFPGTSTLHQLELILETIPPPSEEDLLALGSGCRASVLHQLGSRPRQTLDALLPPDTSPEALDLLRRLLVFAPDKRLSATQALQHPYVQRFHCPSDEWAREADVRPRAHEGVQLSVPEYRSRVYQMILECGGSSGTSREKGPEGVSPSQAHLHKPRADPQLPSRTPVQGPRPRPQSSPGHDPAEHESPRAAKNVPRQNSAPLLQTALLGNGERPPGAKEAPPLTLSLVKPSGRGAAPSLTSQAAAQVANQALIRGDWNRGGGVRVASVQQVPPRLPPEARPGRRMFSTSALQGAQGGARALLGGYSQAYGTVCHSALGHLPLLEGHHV
# T26 sequence (O94806 whole entry): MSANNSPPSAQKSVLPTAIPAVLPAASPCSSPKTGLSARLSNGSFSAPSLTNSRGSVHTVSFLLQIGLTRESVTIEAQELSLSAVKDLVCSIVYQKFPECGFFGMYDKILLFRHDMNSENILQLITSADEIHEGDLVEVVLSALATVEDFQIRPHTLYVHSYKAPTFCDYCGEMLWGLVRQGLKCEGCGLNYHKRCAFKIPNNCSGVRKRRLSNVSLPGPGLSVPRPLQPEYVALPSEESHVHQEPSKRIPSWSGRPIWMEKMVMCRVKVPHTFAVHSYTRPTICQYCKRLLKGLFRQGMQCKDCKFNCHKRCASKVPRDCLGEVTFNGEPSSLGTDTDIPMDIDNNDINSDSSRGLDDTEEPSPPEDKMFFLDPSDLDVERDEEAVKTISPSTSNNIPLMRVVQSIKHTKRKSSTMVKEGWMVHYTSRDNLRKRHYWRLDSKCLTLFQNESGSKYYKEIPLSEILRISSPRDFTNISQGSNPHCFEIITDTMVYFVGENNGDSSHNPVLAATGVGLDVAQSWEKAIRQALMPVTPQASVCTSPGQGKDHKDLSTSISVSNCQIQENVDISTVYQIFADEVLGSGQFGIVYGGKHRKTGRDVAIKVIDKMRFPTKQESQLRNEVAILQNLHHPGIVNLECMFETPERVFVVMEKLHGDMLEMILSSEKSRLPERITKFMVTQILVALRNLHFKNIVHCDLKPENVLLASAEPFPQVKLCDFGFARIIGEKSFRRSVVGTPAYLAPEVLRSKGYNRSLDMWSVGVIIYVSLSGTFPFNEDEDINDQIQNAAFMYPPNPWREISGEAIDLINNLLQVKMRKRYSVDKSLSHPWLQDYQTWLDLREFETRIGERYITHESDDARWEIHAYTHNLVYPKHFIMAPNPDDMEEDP
compound,measurement,setting,value
CCN(C(=O)CO)[C@H]1CN(/C(=N\C#N)Nc2cccc(OC(F)F)c2)N=C1c1ccc(Cl)c(Cl)c1 [(S)-4],remaining binding at 1 µM,[1],100%
same,remaining binding at 1 µM,[2],89%
same,remaining binding at 1 µM,[3],63%
same,remaining binding at 1 µM,[4],63%
same,remaining binding at 1 µM,[5],100%
same,remaining binding at 1 µM,[6],96%
same,remaining binding at 1 µM,[7],100%
same,remaining binding at 1 µM,[8],96%
same,remaining binding at 1 µM,[9],100%
same,remaining binding at 1 µM,[10],78%
same,remaining binding at 1 µM,[11],86%
same,remaining binding at 1 µM,[12],99%
same,remaining binding at 1 µM,[13],66%
same,remaining binding at 1 µM,[14],98%
same,remaining binding at 1 µM,[15],100%
same,remaining binding at 1 µM,[16],73%
same,remaining binding at 1 µM,[17],96%
same,remaining binding at 1 µM,[18],100%
same,remaining binding at 1 µM,[19],86%
same,remaining binding at 1 µM,[20],82%
same,remaining binding at 1 µM,[21],100%
same,remaining binding at 1 µM,[22],100%
same,remaining binding at 1 µM,[23],74%
same,remaining binding at 1 µM,[24],100%
same,remaining binding at 1 µM,[25],89%
same,remaining binding at 1 µM,[26],99%
same,remaining binding at 1 µM,[27],84%
same,remaining binding at 1 µM,[28],100%
same,remaining binding at 1 µM,[29],99%
same,remaining binding at 1 µM,[30],83%
same,remaining binding at 1 µM,[31],100%
same,remaining binding at 1 µM,[32],82%
same,remaining binding at 1 µM,[33],59%
same,remaining binding at 1 µM,[34],99%
same,remaining binding at 1 µM,[35],96%
same,remaining binding at 1 µM,[36],93%
same,remaining binding at 1 µM,[37],73%
